In patent publication US10292945B2, “Dressings that contain active substance” (BEIERSDORF AG, priority 2011, dated 2019):

Test: Active substance release from acrylate adhesive matrix into pig skin by Franz's cells, HPLC determination
Assay type: in vitro ADME
Text: The release of the active ingredients within the product is advantageously adjusted such that an effect can still be perceived even after a period of 2 days. The delayed effect of the active substances used is achieved here from combination of active substance content and auxiliaries. The release of the active substances can be controlled over a wide time range via the use of e.g. plasticizers and fillers. Examples of such systems are pain patches on the market that contain opiates such as fentanyl, which are applied over several days up to a week and ensure an absolutely uniform release of the active substance over the entire application time. For the determination of the release rate of vanillyl butyl ether (VBE) from e.g. acrylate compositions, it was incorporated into the adhesive compositions in an amount of 0.75% and the release was ascertained over the time in pig skin by means of Franz's cells. Determination of the released amounts into the full-thickness skin was then carried out by HPLC.
One possible measure to increase the active ingredient release is the use of solubilizers. […] For the two other additives, lower values were determined, meaning that decyl oleate (Cetiol V) in particular is a preferred solubilizer in the adhesive composition. […]

CCCCCCCC/C=C\CCCCCCCC(=O)OCCCCCCCCCC [Cetiol V, decyl oleate]
Effect of added solubilizer on released amount of VBE in pig skin: significant increase in the released amount of VBE
